Assay [1] deals with T1, 14-3-3η (Homo sapiens, UniProt Q04917).
T1 construct: cDNAs encoding other full-length 14-3-3 isoforms β, τ, η, and σ were obtained as codon-optimized; made in house; host or cells: E. coli BL21(DE3)
T1 sequence (Q04917 1-246): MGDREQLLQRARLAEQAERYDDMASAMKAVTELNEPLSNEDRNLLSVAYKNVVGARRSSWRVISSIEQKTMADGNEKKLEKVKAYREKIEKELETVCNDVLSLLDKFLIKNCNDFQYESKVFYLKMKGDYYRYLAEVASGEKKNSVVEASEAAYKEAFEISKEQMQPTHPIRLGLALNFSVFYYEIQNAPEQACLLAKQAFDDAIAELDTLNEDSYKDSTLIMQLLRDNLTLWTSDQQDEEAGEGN
In words: biochemical. Type of assay: binding.

The target of assay [2] is T2, 14-3-3γ (Homo sapiens, UniProt P61981).
T2 construct: full-length human 14-3-3 constructs with an N-terminal MBP fusion were used; made in house; host or cells: E. coli BL21(DE3)
T2 sequence (P61981 1-247): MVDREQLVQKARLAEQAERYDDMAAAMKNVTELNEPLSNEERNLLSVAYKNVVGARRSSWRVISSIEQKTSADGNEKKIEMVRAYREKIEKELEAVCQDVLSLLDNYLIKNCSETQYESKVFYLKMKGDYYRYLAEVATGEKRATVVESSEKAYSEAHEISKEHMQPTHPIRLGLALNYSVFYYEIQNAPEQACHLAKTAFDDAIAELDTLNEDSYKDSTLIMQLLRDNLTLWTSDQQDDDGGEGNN
Put plainly: biochemical. Type of assay: binding. The method, then:
FP was measured with a PHERAstar (BMG Labtech, Offenburg, Germany) microplate reader by using 485 ± 20 and 528 ± 20 nm band-pass filters (for excitation and emission, respectively). In direct FP measurements, a dilution series of the 14-3-3 protein was prepared in 96-well plates (96-well skirted PCR plate, 4ti-0740, 4titude, Wotton, UK) in a 20 mM HEPES pH 7.5 buffer containing 150 mM NaCl, 0.5 mM TCEP, 0.01% Tween 20, 50 nM fluorescently labeled fpB6 peptide, and 100 μM FSC, if indicated. The volume of the dilution series was 40 μl, which was later divided into three technical replicates of 10 μl upon transferring to 384-well micro-plates (low binding microplate, 384 well, E18063G5, Greiner Bio-One, Kremsmünster, Austria). In total, polarization of the probe was measured at eight different protein concentrations (whereas one contained no protein and corresponded to the free peptide). In competitive FP measurements, the same buffer was supplemented with the protein to achieve a complex formation of 60–80%, based on the direct titration. Then, this mixture was used for creating a dilution series of the unlabeled competitor (i.e., the studied peptides) and the measurement was carried out identically as in the direct experiment.
All FP experiments were done in triplicates. Analysis of FP experiments were carried out using ProFit, an in-house developed, Python-based fitting program. […]

Molecules are shown by their SMILES. Starred links: 1 amine or outer side, 2 acyl side, 3 side chain; linkers in the order of their positions; H or OH if unused. Non-standard residues stand in square brackets, D forms with d. Residues, ends and D or L forms follow the SMILES beside them. *: point of attachment. X1 = O=C(CCCC[C@@H]1SC[C@@H]2NC(=O)N[C@@H]21)NCCCOCCOCCOCCCN*; pT = C[C@@H](OP(=O)(O)O)[C@H](N)C(=O)O; Suc = O=C(CCC(=O)[*:2])[*:1]

Turning to `CC(C)[C@H](NC(=O)[C@H](CCC(=O)O)NC(=O)[C@@H](NC(=O)[C@H](CCC(=O)O)NC(=O)[C@H](CCCNC(=N)N)NC(=O)[C@H](CCCNC(=N)N)NC(=O)[C@H](CCCNC(=N)N)NC(=O)[C@@H]1CCCN1C(=O)[C@H](CCCCN)NC(=O)[C@H](CO)NC(=O)CCC(=O)NCCCOCCOCCOCCCNC(=O)CCCC[C@@H]1SC[C@@H]2NC(=O)N[C@@H]21)[C@@H](C)OP(=O)(O)O)C(=O)O` [pHPV35E6T-6R] ({X1-Suc}-SKPRRRE[pT]EV-OH), in assay [1], the Kd (usually the concentration at which binding is half-saturated) is 85 ± 20.6 µM. Same read-out and setting: next, `CC(C)[C@H](NC(=O)[C@H](C)NC(=O)[C@@H](NC(=O)[C@H](CCC(=O)O)NC(=O)[C@H](CCCNC(=N)N)NC(=O)[C@H](CCCNC(=N)N)NC(=O)[C@@H](NC(=O)[C@@H]1CCCN1C(=O)[C@H](CCCCN)NC(=O)[C@H](CO)NC(=O)CCC(=O)NCCCOCCOCCOCCCNC(=O)CCCC[C@@H]1SC[C@@H]2NC(=O)N[C@@H]21)[C@@H](C)O)[C@@H](C)OP(=O)(O)O)C(=O)O` [pHPV35E6E-1A] ({X1-Suc}-SKPTRRE[pT]AV-OH): 12.4 µM. Regarding `CC(C)[C@H](NC(=O)[C@H](CCC(=O)O)NC(=O)[C@@H](NC(=O)[C@H](CCC(=O)O)NC(=O)[C@H](CCCNC(=N)N)NC(=O)[C@H](CCCNC(=N)N)NC(=O)[C@@H](NC(=O)[C@@H]1CCCN1C(=O)[C@H](CCCCN)NC(=O)[C@H](CO)NC(=O)CCC(=O)NCCCOCCOCCOCCCNC(=O)CCCC[C@@H]1SC[C@@H]2NC(=O)N[C@@H]21)[C@@H](C)O)[C@@H](C)OP(=O)(O)O)C(=O)O` [pHPV35E6] ({X1-Suc}-SKPTRRE[pT]EV-OH), the equilibrium dissociation constant (Kd) in assay [1] was 163 ± 19 µM.

In the case of `CC(C)C[C@H](NC(=O)[C@H](C)NC(=O)[C@@H](NC(=O)[C@H](CCC(=O)O)NC(=O)[C@H](CCCNC(=N)N)NC(=O)[C@H](CCCNC(=N)N)NC(=O)[C@H](CCCNC(=N)N)NC(=O)[C@H](CO)NC(=O)[C@H](CCCNC(=N)N)NC(=O)[C@H](CO)NC(=O)CCC(=O)NCCCOCCOCCOCCCNC(=O)CCCC[C@@H]1SC[C@@H]2NC(=O)N[C@@H]21)[C@@H](C)OP(=O)(O)O)C(=O)O` [pHPV33E6] ({X1-Suc}-SRSRRRE[pT]AL-OH), the Kd in assay [1] was determined as 1.98 µM; in assay [2] it was 2.2 ± 0.3 µM.

These data come from article PMC7961048, “Hierarchized phosphotarget binding by the seven human 14-3-3 isoforms” (Nature Communications, 2021).
